Reference: patent publication US9795574B2, “Method for preparing agomelatine cocrystals and composition containing same” (SOONCHUNHYANG UNIVERSITY INDUSTRY ACADEMY COOPERATION …, priority 2014, dated 2017)

Assays:
[1] = Thermal stability testing: powder kept at 70° C., then X-ray diffraction analysis; type: physicochemical
Text: In other words, the antisolvent method of the present invention makes it possible to produce an agomelatine-resorcinol co-crystal with higher stability.

[2] = Intrinsic dissolution rate (IDR) of pellets, USP equipment 2 (paddle method); type: physicochemical; conditions: for Dissolution rate (intrinsic dissolution rate in terms of ratio): 37° C., 50 rpm, ratio to agomelatine
Protocol: In order to measure the intrinsic dissolution rate (IDR) of agomelatine and the agomelatine-resorcinol co-crystal, 50 mg of agomelatine and 72.63 mg of the agomelatine-resorcinol co-crystal of Example 1 were molded into a number of pellets having a constant surface area and then subjected to a dissolution testing.
Each powder specimen was put in a 13 mm pellet die (Specac, UK), squeezed down under a weight of 0.5 ton for 2 minutes with a hydraulic compressor and then molded into pellets having a constant surface area of 1.33 cm^2.
The pellets thus obtained were immobilized in 900 ml of a testing solution (pH 1.2 HCl aqueous solution and pH 6.8 phosphate-buffer solution) at 37° C., which solution was stirred with USP equipment 2 (paddle method) operated at 50 rpm. Then, the concentration of the agomelatine released from the pellets was measured.
3 ml of the testing solution was collected each time of 3 min, 5 min, 10 min, 15 min, 20 min, 25 min, 30 min, 45 min, 60 min, 75 min, 90 min, 105 min, and 120 min. The concentration (dissolved amount) of agomelatine in the collected solution was measured with UV-3600 (Shimadzu, Japan) spectrochemical analysis equipment.
FIG. 11 presents the results of the dissolution testing for the agomelatine and the agomelatine-resorcinol co-crystal in an aqueous solution of HCl (pH 1.2) and a phosphate-buffered solution (pH 6.8).

[3] = Medium pH = 1.2 HCl aqueous solution
[4] = Medium pH = 6.8 phosphate-buffer solution

| crystal form after storage (XRD) ([1]; same temperature conditions (70° C.), 7 days) | Compound | Dissolution rate (intrinsic dissolution rate in terms of ratio) [2, 3] | Dissolution rate (intrinsic dissolution rate in terms of ratio) [2, 4] | dissolution rate higher than agomelatine ([2]; acidic medium (pH 1.2)) | dissolution rate higher than agomelatine ([2]; neutral medium (pH 6.8)) | crystal form after storage (XRD) ([1]; kept at 70° C. for 30 days) |
| --- | --- | --- | --- | --- | --- | --- |
| deformation occurred | agomelatine-resorcinol co-crystal [Preparation Example 1, reference compound] |  |  |  |  |  |
|  | COc1ccc2cccc(CCNC(C)=O)c2c1 [Agomelatine, agomelatine] | 1.0 | 1.0 |  |  |  |
|  | agomelatine-resorcinol co-crystal [Example 1] | 2.3 | 3.2 | 2.3 fold | 3.2 fold | pure crystal form was maintained |
